“And” between values parts separate entries of the source, which are not always exact repeats. Equal values may be shown once.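 Compound exposure: 48 hours, 5 concentrations, 96-well plates. GI50 marks 50% less growth. TGI: total growth inhibition.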
Experiments:
Test in all cases: NCI tumour cell line growth inhibition, 48 h
[1] = test system: IGROV1 ovarian
[2] = test system: SF-295 CNS
[3] = test system: OVCAR-8 ovarian
[4] = test system: SNB-19 CNS
[5] = test system: RXF 393 renal
[6] = test system: OVCAR-4 ovarian
[7] = test system: NCI/ADR-RES ovarian
[8] = test system: SK-MEL-2 melanoma
[9] = test system: SNB-75 CNS
[10] = test system: KM12 colon

Row | SMILES | GI50 [1] [µM] | TGI [1] [µM] | GI50 [2] | TGI [2] | GI50 [3] [µM] | TGI [3] [µM] | GI50 [4] [µM] | TGI [4] | GI50 [5] | TGI [5] [µM] | GI50 [6] [µM] | TGI [6] [µM] | GI50 [7] | TGI [7] [µM] | GI50 [8] [µM] | TGI [8] [µM] | GI50 [9] [µM] | TGI [9] | GI50 [10] [µM] | TGI [10] [µM]
1 | CCn1cnc(C[C@H](NC(=O)[C@@H](NC(=O)Nc2cc(C(F)(F)F)cc(C(F)(F)F)c2)C(C)(C)C)C(=O)OC)c1 | > 10 | > 10 | > 10 µM | > 10 µM | > 10 | > 10 | > 10 | > 10 µM | > 10 µM | > 10 | > 10 | > 10 | > 10 µM | > 10 | > 10 | > 10 | > 10 | > 10 µM | > 10 | > 10
2 | COC(=O)c1cc2c3cc(Cl)ccc3[nH]c2c2ncccc12 | 77.4 | > 100 | > 100 µM | > 100 µM | > 100 | > 100 | > 100 | > 100 µM | > 100 µM | > 100 | > 100 | > 100 | > 100 µM | > 100 | > 100 | > 100 | > 100 | > 100 µM | > 100 | > 100
3 | CC(C)C[C@H](NC(=O)[C@@H](N)Cc1cccc2ccccc12)B(O)O | 0.836 | – | 0.313 µM | – | 1.62 | – | 0.11 | 50 µM and > 100 µM | 0.136 µM | – | 0.0384 | – | 1.39 µM and 0.183 µM | – | 0.598 | – | 1.07 | – | 0.546 | –
4 | CC(C)OC(=O)NNc1c(Cl)cc(Cl)cc1Cl | – | > 100 | – | > 100 µM | – | > 100 | – | > 100 µM | – | 69.5 | – | – | – | > 100 | – | > 100 | – | > 100 µM | – | > 100
5 | C(#Cc1ccccc1C#Cc1cnccn1)c1cnccn1 | > 22.9 | > 47.9 | 30.3 µM | > 74 µM | 38.2 | > 72.6 | > 100 | > 100 µM | > 100 µM | > 100 | 38.3 | > 100 | 23.2 µM | > 75.8 | > 38.9 | > 61.1 | 29.2 | > 100 µM | 26.1 | 68.3
6 | CCOC(=O)c1ccc(N[C@@H]2c3cc4c(cc3C(c3cc(OC)c(O)c(OC)c3)[C@H]3C(=O)OCC32)OCO4)cc1 (stereo partly drawn) | 0.962 | 10 | 0.238 µM and 0.241 µM | 0.904 µM and 2.2 µM | 0.479 | 6.49 | 0.261 | 22.2 µM | 0.426 µM and 1.95 µM | 5.93 | – | 12.6 | – | 6.41 | – | 6.27 | 0.308 | 0.909 µM and 4.98 µM | 0.875 | 5.29
7 | CCCCCCCCCCCCNCCCc1ccccc1 | 1.93 | 3.49 | 1.93 µM | 3.62 µM | 1.75 | 3.39 | 2.07 | 5.35 µM | 1.63 µM | 3.1 | 1.57 | 2.98 | 1.77 µM | 3.5 | – | – | 1.43 | 2.89 µM | 1.75 | 3.13
8 | O=c1oc2cc(O)ccc2cc1-c1nc2ccccc2o1 | – | > 100 | – | > 100 µM | – | > 100 | – | > 100 µM | – | 35.5 | – | > 100 | – | > 100 | – | > 100 | – | > 100 µM | – | 93
9 | O=C(Nc1cccc2[nH]c(C(F)(F)F)nc12)c1ccc(Br)cc1F | 6.75 | 32.4 | 2.94 µM | 10.3 µM | 3.14 | 15.6 | 3.79 | 14.6 µM | 3.1 µM | 9.12 | – | – | 3.35 µM | 12.2 | 0.32 | 2.12 | 2.68 | 18 µM | 3.29 | 12
10 | CC(=O)OC1C(C)OC(Oc2c(-c3ccc(O)cc3)oc3cc(O)cc(O)c3c2=O)C(O)C1OC(C)=O (stereo not drawn) | 31.7 | > 79.8 | 29.9 µM | > 100 µM | 29 | > 84.9 | 36.2 | > 100 µM | 24.2 µM | 71.8 | 35.9 | > 100 | > 100 µM | > 100 | 21.1 | 49.3 | 27.5 | > 93.9 µM | 29.4 | > 83.8
11 | CC(C)(C)c1ccc(OCCCCCCCN2CCNCC2)cc1 | 1.92 | 3.66 | 1.84 µM | 3.78 µM | – | – | 3.42 | 12.8 µM | 1.69 µM | 3.37 | 1.6 | 3.22 | 2.46 µM | 6.94 | 1.74 | 3.47 | 1.57 | 3.74 µM | 1.85 | 3.6
12 | O=C(/C=C/c1cccc(Cl)c1)c1ccccc1 | 2.06 | 6.41 | 3.88 µM | 18 µM | 3.32 | 11.4 | 11.7 | 25.8 µM | 12.2 µM | 24.8 | 13.6 | 26.8 | 16.3 µM | 49.8 | – | – | 15.1 | 28.6 µM | 1.96 | 4.86
13 | COc1cc(/C=C2\CC3C4CC=C5C[C@@H](N6CCCC6)CC[C@]5(C)C4CC[C@]3(C)[C@H]2OC(C)=O)ccc1OCCCn1ccnc1 (stereo partly drawn) | 8.12 | > 50 | 1.21 µM | 3.46 µM | 0.774 | 2.79 | 1.46 | > 50 µM | 0.704 µM | 2.08 | – | – | 5.35 µM | 13.5 | 7.54 | > 50 | – | – | 0.63 | 4.02
14 | CCOC(=O)CCC(NC(=O)c1ccc(Oc2nc3cc(N)cc(N)c3nc2-c2ccccc2)cc1)C(=O)OCC (stereo not drawn) | 18.2 | 78.7 | 40.6 µM | > 100 µM | 38.2 | > 100 | 31.6 | > 100 µM | 43.9 µM | > 100 | 35.6 | > 100 | 27.5 µM | > 100 | 40.7 | > 100 | – | – | 27.4 | > 100
